# Data: PubChem BioAssay (NCI)
#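 Briefly, cells in 96-well plates were exposed to five compound concentrations for 48 h, and endpoints were estimated by linear interpolation. GI50: concentration for 50% inhibition of growth. TGI: concentration producing complete growth inhibition.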
# Tests used:
# Test in all cases: growth of human tumour cells (NCI), 48 h
# HS 578T breast = test system: HS 578T breast
# NCI/ADR-RES ovarian = test system: NCI/ADR-RES ovarian
# RPMI-8226 leukemia = test system: RPMI-8226 leukemia
# OVCAR-4 ovarian = test system: OVCAR-4 ovarian
# SNB-19 CNS = test system: SNB-19 CNS
# LOX IMVI melanoma = test system: LOX IMVI melanoma
# SF-295 CNS = test system: SF-295 CNS
# 786-0 renal = test system: 786-0 renal
# MALME-3M melanoma = test system: MALME-3M melanoma
# SF-268 CNS = test system: SF-268 CNS
# MOLT-4 leukemia = test system: MOLT-4 leukemia
# OVCAR-8 ovarian = test system: OVCAR-8 ovarian
# T-47D breast = test system: T-47D breast
# SK-MEL-2 melanoma = test system: SK-MEL-2 melanoma
# COLO 205 colon = test system: COLO 205 colon
# CCRF-CEM leukemia = test system: CCRF-CEM leukemia
# TK-10 renal = test system: TK-10 renal
# MCF7 breast = test system: MCF7 breast
# MDA-MB-231 breast = test system: MDA-MB-231 breast
# K-562 leukemia = test system: K-562 leukemia
# BT-549 breast = test system: BT-549 breast
# CAKI-1 renal = test system: CAKI-1 renal
# M14 melanoma = test system: M14 melanoma
# SW-620 colon = test system: SW-620 colon
# ACHN renal = test system: ACHN renal
# HOP-62 NSCLC = test system: HOP-62 NSCLC
# UACC-62 melanoma = test system: UACC-62 melanoma
# HCC-2998 colon = test system: HCC-2998 colon
# SNB-75 CNS = test system: SNB-75 CNS
# KM12 colon = test system: KM12 colon
# HT29 colon = test system: HT29 colon
# A498 renal = test system: A498 renal
# SK-MEL-5 melanoma = test system: SK-MEL-5 melanoma
# SK-MEL-28 melanoma = test system: SK-MEL-28 melanoma
# SR leukemia = test system: SR leukemia
# SF-539 CNS = test system: SF-539 CNS
# U251 CNS = test system: U251 CNS
# UO-31 renal = test system: UO-31 renal
# HOP-92 NSCLC = test system: HOP-92 NSCLC
# IGROV1 ovarian = test system: IGROV1 ovarian
# NCI-H226 lung = test system: NCI-H226 lung
# SN12C renal = test system: SN12C renal
# UACC-257 melanoma = test system: UACC-257 melanoma
# RXF 393 renal = test system: RXF 393 renal
# A549 NSCLC = test system: A549 NSCLC
# NCI-H522 lung = test system: NCI-H522 lung
# HCT-15 colon = test system: HCT-15 colon
# EKVX NSCLC = test system: EKVX NSCLC
# HL-60(TB) leukemia = test system: HL-60(TB) leukemia
# NCI-H460 lung = test system: NCI-H460 lung
# HCT-116 colon = test system: HCT-116 colon
# OVCAR-5 ovarian = test system: OVCAR-5 ovarian
# PC-3 prostate = test system: PC-3 prostate
# DU-145 prostate = test system: DU-145 prostate
# SK-OV-3 ovarian = test system: SK-OV-3 ovarian
# NCI-H23 lung = test system: NCI-H23 lung
# MDA-MB-435 = test system: MDA-MB-435
smiles,measurement,setting,value
Cc1ccccc1N1CCN(C2=C(Cl)C(=O)c3ncccc3C2=O)CC1,GI50,HS 578T breast,4.94 µM
same,TGI,HS 578T breast,85.3 µM
same,GI50,NCI/ADR-RES ovarian,2.51 µM
same,TGI,NCI/ADR-RES ovarian,7.18 µM
same,GI50,RPMI-8226 leukemia,2 µM
same,TGI,RPMI-8226 leukemia,5.22 µM
same,GI50,OVCAR-4 ovarian,1.75 µM
same,TGI,OVCAR-4 ovarian,3.23 µM
same,GI50,SNB-19 CNS,30.3 µM
same,TGI,SNB-19 CNS,> 100 µM
same,GI50,LOX IMVI melanoma,1.65 µM
same,TGI,LOX IMVI melanoma,3.21 µM
same,GI50,SF-295 CNS,14.7 µM
same,TGI,SF-295 CNS,> 100 µM
same,GI50,786-0 renal,1.71 µM
same,TGI,786-0 renal,3.09 µM
same,GI50,MALME-3M melanoma,2.03 µM
same,TGI,MALME-3M melanoma,4.64 µM
same,GI50,SF-268 CNS,23.7 µM
same,TGI,SF-268 CNS,> 100 µM
same,GI50,MOLT-4 leukemia,1.78 µM
same,TGI,MOLT-4 leukemia,4.95 µM
same,GI50,OVCAR-8 ovarian,1.91 µM
same,TGI,OVCAR-8 ovarian,4.35 µM
same,GI50,T-47D breast,1.9 µM
same,TGI,T-47D breast,4.35 µM
same,GI50,SK-MEL-2 melanoma,2.75 µM
same,TGI,SK-MEL-2 melanoma,14.8 µM
same,GI50,COLO 205 colon,3.14 µM
same,TGI,COLO 205 colon,10.8 µM
same,GI50,CCRF-CEM leukemia,1.73 µM
same,TGI,CCRF-CEM leukemia,5.19 µM
same,GI50,TK-10 renal,4.76 µM
same,TGI,TK-10 renal,> 100 µM
same,GI50,MCF7 breast,1.46 µM
same,TGI,MCF7 breast,3.22 µM
same,GI50,MDA-MB-231 breast,1.71 µM
same,TGI,MDA-MB-231 breast,3.27 µM
same,GI50,K-562 leukemia,1.28 µM
same,TGI,K-562 leukemia,4.08 µM
same,GI50,BT-549 breast,1.96 µM
same,TGI,BT-549 breast,3.41 µM
same,GI50,CAKI-1 renal,2.78 µM
same,TGI,CAKI-1 renal,> 100 µM
same,GI50,M14 melanoma,2.2 µM
same,TGI,M14 melanoma,6.45 µM
same,GI50,SW-620 colon,1.48 µM
same,TGI,SW-620 colon,3.45 µM
same,GI50,ACHN renal,1.85 µM
same,TGI,ACHN renal,3.89 µM
same,GI50,HOP-62 NSCLC,35.1 µM
same,TGI,HOP-62 NSCLC,> 100 µM
same,GI50,UACC-62 melanoma,3.92 µM
same,TGI,UACC-62 melanoma,42.2 µM
same,GI50,HCC-2998 colon,3.33 µM
same,TGI,HCC-2998 colon,13.8 µM
same,GI50,SNB-75 CNS,17.4 µM
same,TGI,SNB-75 CNS,> 100 µM
same,GI50,KM12 colon,48.1 µM
same,TGI,KM12 colon,> 100 µM
same,GI50,HT29 colon,5.33 µM
same,TGI,HT29 colon,> 100 µM
same,GI50,A498 renal,> 100 µM
same,TGI,A498 renal,> 100 µM
same,GI50,SK-MEL-5 melanoma,4.98 µM
same,TGI,SK-MEL-5 melanoma,17.7 µM
same,GI50,SK-MEL-28 melanoma,2.19 µM
same,TGI,SK-MEL-28 melanoma,5.06 µM
same,GI50,SR leukemia,1 µM
same,TGI,SR leukemia,5 µM
same,GI50,SF-539 CNS,1.8 µM
same,TGI,SF-539 CNS,3.32 µM
same,GI50,U251 CNS,6 µM
same,TGI,U251 CNS,25.6 µM
same,GI50,UO-31 renal,1.49 µM
same,TGI,UO-31 renal,2.86 µM
same,GI50,HOP-92 NSCLC,1.36 µM
same,TGI,HOP-92 NSCLC,2.7 µM
same,GI50,IGROV1 ovarian,1.97 µM
same,TGI,IGROV1 ovarian,4.09 µM
same,GI50,NCI-H226 lung,20.8 µM
same,TGI,NCI-H226 lung,> 100 µM
same,GI50,SN12C renal,3.56 µM
same,TGI,SN12C renal,78.9 µM
same,GI50,UACC-257 melanoma,1.98 µM
same,TGI,UACC-257 melanoma,4.25 µM
same,GI50,RXF 393 renal,1.74 µM
same,TGI,RXF 393 renal,3.17 µM
same,GI50,A549 NSCLC,23.5 µM
same,TGI,A549 NSCLC,> 100 µM
same,GI50,NCI-H522 lung,1.68 µM
same,TGI,NCI-H522 lung,3.31 µM
same,GI50,HCT-15 colon,1.69 µM
same,TGI,HCT-15 colon,4.52 µM
same,GI50,EKVX NSCLC,1.68 µM
same,TGI,EKVX NSCLC,3.1 µM
same,GI50,HL-60(TB) leukemia,1.61 µM
same,TGI,HL-60(TB) leukemia,4.05 µM
same,GI50,NCI-H460 lung,6.68 µM
same,TGI,NCI-H460 lung,46.5 µM
same,GI50,HCT-116 colon,1.56 µM
same,TGI,HCT-116 colon,2.89 µM
same,GI50,OVCAR-5 ovarian,6.89 µM
same,TGI,OVCAR-5 ovarian,21.2 µM
same,GI50,PC-3 prostate,1.63 µM
same,TGI,PC-3 prostate,3.7 µM
same,GI50,DU-145 prostate,3.8 µM
same,TGI,DU-145 prostate,> 100 µM
same,GI50,SK-OV-3 ovarian,37.2 µM
same,TGI,SK-OV-3 ovarian,> 100 µM
C#C[C@]1(O)CC[C@H]2[C@@H]3CC=C4c5sc(Nc6ccc(OC)nc6)nc5CC[C@]4(C)[C@H]3CC[C@@]21C,GI50,HS 578T breast,0.231 µM
same,TGI,HS 578T breast,1.61 µM
same,GI50,NCI/ADR-RES ovarian,2.36 µM
same,TGI,NCI/ADR-RES ovarian,> 100 µM
same,GI50,RPMI-8226 leukemia,0.222 µM
same,TGI,RPMI-8226 leukemia,1.19 µM
same,GI50,OVCAR-4 ovarian,3.51 µM
same,TGI,OVCAR-4 ovarian,> 100 µM
same,GI50,SNB-19 CNS,1.36 µM
same,TGI,SNB-19 CNS,68.8 µM
same,GI50,LOX IMVI melanoma,1.15 µM
same,TGI,LOX IMVI melanoma,2.79 µM
same,GI50,SF-295 CNS,0.302 µM
same,TGI,SF-295 CNS,1.23 µM
same,GI50,786-0 renal,0.413 µM
same,TGI,786-0 renal,1.97 µM
same,GI50,MALME-3M melanoma,1.54 µM
same,TGI,MALME-3M melanoma,3.21 µM
same,GI50,SF-268 CNS,2.01 µM
same,TGI,SF-268 CNS,17.4 µM
same,GI50,MOLT-4 leukemia,0.39 µM
same,TGI,MOLT-4 leukemia,2.41 µM
same,GI50,OVCAR-8 ovarian,1.8 µM
same,TGI,OVCAR-8 ovarian,5.46 µM
same,GI50,T-47D breast,1.47 µM
same,TGI,T-47D breast,3.78 µM
same,GI50,COLO 205 colon,1.78 µM
same,TGI,COLO 205 colon,3.37 µM
same,GI50,CCRF-CEM leukemia,0.805 µM
same,TGI,CCRF-CEM leukemia,6.24 µM
same,GI50,TK-10 renal,2.28 µM
same,TGI,TK-10 renal,4.81 µM
same,GI50,MCF7 breast,0.789 µM
same,TGI,MCF7 breast,2.54 µM
same,GI50,MDA-MB-231 breast,1.71 µM
same,TGI,MDA-MB-231 breast,9.34 µM
same,GI50,K-562 leukemia,0.907 µM
same,TGI,K-562 leukemia,12.8 µM
same,GI50,BT-549 breast,0.944 µM
same,TGI,BT-549 breast,2.89 µM
same,GI50,CAKI-1 renal,1.28 µM
same,TGI,CAKI-1 renal,3.76 µM
same,GI50,M14 melanoma,1.47 µM
same,TGI,M14 melanoma,3.47 µM
same,GI50,SW-620 colon,1.49 µM
same,TGI,SW-620 colon,3.4 µM
same,GI50,HOP-62 NSCLC,1.66 µM
same,TGI,HOP-62 NSCLC,8.8 µM
same,GI50,HCC-2998 colon,1.7 µM
same,TGI,HCC-2998 colon,3.81 µM
same,GI50,SNB-75 CNS,0.37 µM
same,TGI,SNB-75 CNS,3.9 µM
same,GI50,KM12 colon,2.1 µM
same,TGI,KM12 colon,12.2 µM
same,GI50,HT29 colon,1.31 µM
same,TGI,HT29 colon,3.24 µM
same,GI50,A498 renal,0.769 µM
same,TGI,A498 renal,5.88 µM
same,GI50,SK-MEL-5 melanoma,1.93 µM
same,TGI,SK-MEL-5 melanoma,4.54 µM
same,GI50,SK-MEL-28 melanoma,1.5 µM
same,TGI,SK-MEL-28 melanoma,3.72 µM
same,GI50,NCI-H23 lung,1.65 µM
same,TGI,NCI-H23 lung,4.47 µM
same,GI50,SF-539 CNS,0.366 µM
same,TGI,SF-539 CNS,2.15 µM
same,GI50,U251 CNS,0.654 µM
same,TGI,U251 CNS,2.81 µM
same,GI50,UO-31 renal,0.83 µM
same,TGI,UO-31 renal,2.13 µM
same,GI50,HOP-92 NSCLC,1.03 µM
same,TGI,HOP-92 NSCLC,2.95 µM
same,GI50,IGROV1 ovarian,2.04 µM
same,TGI,IGROV1 ovarian,7.4 µM
same,GI50,NCI-H226 lung,2.02 µM
same,TGI,NCI-H226 lung,13.4 µM
same,GI50,SN12C renal,2.22 µM
same,TGI,SN12C renal,7.61 µM
same,GI50,UACC-257 melanoma,1.55 µM
same,TGI,UACC-257 melanoma,3.18 µM
same,GI50,MDA-MB-435,1.84 µM
same,TGI,MDA-MB-435,4.9 µM
same,GI50,A549 NSCLC,2.2 µM
same,TGI,A549 NSCLC,18 µM
same,GI50,NCI-H522 lung,1.43 µM
same,TGI,NCI-H522 lung,3.02 µM
same,GI50,HCT-15 colon,1.07 µM
same,TGI,HCT-15 colon,8.28 µM
same,GI50,EKVX NSCLC,1.6 µM
same,TGI,EKVX NSCLC,21.3 µM
same,GI50,HL-60(TB) leukemia,0.493 µM
same,TGI,HL-60(TB) leukemia,3.71 µM
same,GI50,NCI-H460 lung,1.92 µM
same,TGI,NCI-H460 lung,5.89 µM
same,GI50,HCT-116 colon,1.13 µM
same,TGI,HCT-116 colon,2.49 µM
same,GI50,OVCAR-5 ovarian,2.49 µM
same,TGI,OVCAR-5 ovarian,15.1 µM
same,GI50,PC-3 prostate,0.739 µM
same,TGI,PC-3 prostate,4.92 µM
same,GI50,DU-145 prostate,2.01 µM
same,TGI,DU-145 prostate,10 µM
same,GI50,SK-OV-3 ovarian,1.26 µM
same,TGI,SK-OV-3 ovarian,6.16 µM
